Experiments:
[1] = system: type I interferon pathway (ISG) in human THP1-Blue-ISG cells; test: Activation of type I interferon pathway (ISG) in human THP1-Blue-ISG cells (Quanti-Blue, OD650); assay type: cell-based; details: Homo sapiens, THP1-Blue ISG; 10 μM, 24 h; Compound OD650/Control OD650; ≥2 times considered valid; read-out: Fold Change
Method: 20 μL of compound diluted with physiological saline was added to each well of a 96-well cell culture plate, the positive control compound was ADU-S100, and the solvent control group was added with 20 μL of physiological saline containing DMSO. THP1-Blue-ISG cells were counted, the cell concentration was adjusted to 5×10^5/mL, and 180 μL of cells were added to each well for incubation. Therefore, the final volume of each test well was 200 μL, the content of DMSO was 0.1%/0.5%, the test concentration of the compound was 10/50 μM, and the positive control compound was ADU-S100 at a final concentration of 10 μM, and incubated for 24 hours for detection.
After 24 hours, 20 μL of the culture solution was took out from each well to a new 96-well plate, 180 μL of chromogenic solution Quanti-Blue was added, placed in a 37° C. incubator, and the OD650 value was measured after 0.5-2 hours. The experiment was repeated twice.
The experimental results were used to evaluate the ability of compounds to induce the secretion of type I interferon pathway (ISG) by the Fold Change, which was calculated as follows:
Fold Change=Compound OD650/Control OD650, wherein the results of ≥2 times were considered valid.

[2] = system: type I interferon pathway in murine Raw-lucia cells; test: Activation of type I interferon pathway in murine Raw-lucia cells (QUANTI-Luc luminescence); assay type: cell-based; details: Mus musculus; 50 μM, 24 h; Compound Luminescence/Control Luminescence; ≥2 times considered valid; read-out: Fold Change
Method: Raw-lucia cells were counted, the cell concentration was adjusted to 5×10^5/mL, and 180 μL of cells were added to each well for incubation. 20 μL of compound diluted with physiological saline was added to each well of a 96-well cell culture plate after cells were adhered, the concentration of the compound was 50 μM/100 μM.
After 24 hours, 20 μL of the culture medium was took out from each well to a new 96-well plate with bottom-transmitting, 50 μL of the luciferase detection reagent QUANTI-Luc™ was added, and the […] was measured immediately (in the dark). The experiment was repeated twice.

[3] = system: 4T1 mouse breast cancer cells; test: 4T1 breast cancer orthotopic tumor model in vivo; details: Balb/C mice, intratumoral injection (IT), days 1/2/3/4/7; FIG. 1
Method: 6-8 week old Balb/C mice were inoculated with 2.5×10^5 4T1 mouse breast cancer cells in the mammary fat pad of each mouse. When the tumor volume grew to about 100 mm^3, the mice were randomly divided into 5 groups, 6 mice in each group.
(§1) Experimental results were evaluated in the form of tumor volume growth curves.

[4] = system: CT26 mouse colon cancer cells; test: CT26 colon cancer subcutaneous xenograft model in vivo; details: Balb/C mice, intratumoral injection (IT), days 1/2/3/4/7; FIG. 2
Method: […] When the tumor volume grew to about 100 mm^3, the mice were randomly divided into 5 groups, 6 mice in each group.
as §1

human-derived STING = human-derived STING (Homo sapiens, UniProt Q86WV6); details: cited from earlier work
Chain of human-derived STING (Q86WV6 whole entry H232R): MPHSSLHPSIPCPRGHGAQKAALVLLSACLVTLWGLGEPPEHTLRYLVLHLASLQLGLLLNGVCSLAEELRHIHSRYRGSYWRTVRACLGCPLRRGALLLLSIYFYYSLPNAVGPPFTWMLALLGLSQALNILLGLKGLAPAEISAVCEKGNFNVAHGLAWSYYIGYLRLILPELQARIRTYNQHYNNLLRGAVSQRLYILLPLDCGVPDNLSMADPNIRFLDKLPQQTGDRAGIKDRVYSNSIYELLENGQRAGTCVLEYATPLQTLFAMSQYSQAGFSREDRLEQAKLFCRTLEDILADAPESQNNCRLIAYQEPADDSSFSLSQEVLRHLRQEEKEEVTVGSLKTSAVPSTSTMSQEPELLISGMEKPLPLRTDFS

O=C(O)CCC(=O)c1cc(-c2c[nH]c3ccccc23)cs1 [I′-31, 4-(4-(1H-indol-3-yl)thiophen-2-yl)-4-oxobutyric Acid]
fold induction at 10 µM [1]: 13.8
fold induction at 50 µM [2]: 21.8
anti-tumor effect (tumor volume growth curves) [3]: significant anti-tumor effect
tumor regression [3]: tumor regression effect is achieved in some mouse tumor models
anti-tumor effect (tumor volume growth curves) [4]: significant anti-tumor effect
tumor regression [4]: tumor regression effect is achieved in some mouse tumor models

Cc1ccc2c(=O)c3cccc(CC(=O)O)c3oc2c1C [DMXAA]
agonistic effect on STING (human-derived STING): ineffective

From US20230032101A1, “FIVE-MEMBERED HETEROCYCLIC OXOCARBOXYLIC ACID COMPOUND AND MEDICAL USE THEREOF” (Shanghai Institute of Materia Medica, Chinese Academy of …, priority 2019, published 2023)
